Results reported in PubChem BioAssay (NCI).
Where “and” joins values, the source holds several entries; their conditions need not be identical. Identical values can stand only once.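 Interpolation was linear, between the two tested concentrations surrounding the appropriate level; five concentrations were tested over 48 hours in 96-well plates. Here, GI50 denotes the concentration required for 50% inhibition of growth. TGI marks complete inhibition of growth.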

Assays:
Assay in all cases: NCI anticancer screen, dose series, 48 h
[1] = tested on: DLD-1 colon
[2] = tested on: SW-620 colon
[3] = tested on: OVCAR-5 ovarian
[4] = tested on: CCRF-CEM leukemia
[5] = tested on: SF-268 CNS
[6] = tested on: SK-OV-3 ovarian
[7] = tested on: DMS 114 small cell lung
[8] = tested on: UO-31 renal
[9] = tested on: M19-MEL melanoma
[10] = tested on: MCF7 breast

Structure (SMILES)	TGI [1]	TGI [2]	TGI [3]	TGI [4]	TGI [5]	TGI [6]	TGI [7]	TGI [8]	TGI [9]	GI50 [9]	GI50 [1]	GI50 [2]	GI50 [3]	GI50 [4]	GI50 [8]	GI50 [5]	GI50 [6]	GI50 [10]	TGI [10]
C#CCn1c(=O)c2cccnc2n(CC#C)c1=O	> 100 µM	> 100 µM	> 100 µM	> 100 µM	> 100 µM	> 100 µM													
COC(=O)c1nc(C(=O)OC)c2c([nH]c3ccccc32)c1C(=O)OC	> 100 µM	> 100 µM	> 100 µM	> 100 µM			> 100 µM	75.9 µM											
CC(=O)N(CCN1C(=O)c2ccccc2C1=O)CCN1C(=O)c2ccccc2C1=O	> 100 µM	> 100 µM		> 100 µM	> 100 µM	> 100 µM	> 100 µM	> 100 µM	> 100 µM										
OCCCc1cnco1	> 100 µM	> 100 µM	> 100 µM	> 100 µM	> 100 µM	> 100 µM		> 100 µM	> 100 µM										
CC(=O)Oc1c(Br)ccc2cc(C(Br)Br)c(C(=O)c3ccccc3)nc12	51.5 µM	48.2 µM	31.1 µM		53.5 µM		49.6 µM	35.9 µM	44.1 µM										
O=[N+]([O-])c1ccc(/C(Cl)=C/c2ccc(/C=C(\Cl)c3ccc([N+](=O)[O-])cc3[N+](=O)[O-])cc2)c([N+](=O)[O-])c1	> 100 µM	> 100 µM	> 100 µM		> 100 µM	> 100 µM	> 100 µM	> 100 µM	> 100 µM										
O=C(O)c1ccc(C(=O)O)c(C(=O)O)c1.[NH-]C1CCCCC1[NH-].[Pt+2]	> 87.4 µM	57.9 µM	35.5 µM	66.8 µM	> 87.4 µM	> 97.3 µM		26.5 µM	46 µM	1.41 µM	5.25 µM	0.43 µM	6.32 µM	0.858 µM and 4.49 µM	4.22 µM	7.54 µM	40.9 µM	2.3 µM	31.9 µM
Cc1cc2c(cc1C)[n+](=O)c(C(=O)CC(=O)C(=O)Nc1ccccc1C(C)C)c(C)n2[O-]		> 100 µM	> 100 µM	> 100 µM	> 100 µM	> 100 µM	> 100 µM	> 100 µM	> 100 µM										
O=C(NS(=O)(=O)c1ccc(NC[C@H]2COCCO2)c([N+](=O)[O-])c1)c1ccc(N2CCN(CC3=C(c4ccc(Cl)cc4)CC4(CCC4)CC3)CC2)cc1Oc1cnc2[nH]ccc2c1		6.6 µM	4.03 µM	> 100 µM	17.9 µM	4.57 µM		3.52 µM				2.47 µM	1.73 µM	2.69 µM	1.69 µM	2.97 µM	1.95 µM	2.29 µM	10.4 µM
COc1cc(C2C(C(=O)O)=C(COC(C)=O)Oc3cc4c(cc32)OCO4)cc(OC)c1OC(C)=O (stereo not drawn)	> 100 µM	> 100 µM		> 100 µM		> 100 µM	> 100 µM	> 100 µM	> 100 µM										
Brc1ccc(Nc2nc3ccccc3nc2Nc2ccc(Br)cc2)cc1		10.5 µM	5.15 µM	10.7 µM	13.3 µM	7.69 µM		6.3 µM				2.78 µM	1.03 µM	1.01 µM	1.83 µM	1.69 µM	2.14 µM	0.527 µM	5.41 µM
O=C(O)c1ccc(Oc2nc3ccccc3s2)cc1		> 100 µM	> 100 µM	> 100 µM	> 100 µM	> 100 µM		> 100 µM											> 100 µM
NC(=N\N=C/c1ccc(Cl)cc1Cl)/C(N)=N\N=C/c1ccc(Cl)cc1Cl		> 100 µM	> 100 µM	> 100 µM	> 100 µM	11.3 µM		> 83.6 µM				> 54.3 µM	> 100 µM	36.5 µM	13.3 µM	50.4 µM	1.16 µM	> 73.8 µM	> 100 µM
O=Cc1ccc(-c2ccc(-c3ccc(C=O)o3)[se]2)o1		> 100 µM	> 100 µM	> 100 µM	> 100 µM	> 100 µM		> 100 µM				> 100 µM	> 85.2 µM	> 100 µM	> 100 µM	> 95.4 µM	> 85.8 µM	6.35 µM	> 100 µM
O=C(Nc1ccc(I)cc1)c1cccc([N+](=O)[O-])c1O		> 100 µM	> 100 µM	29.7 µM	> 100 µM	44.9 µM		8.49 µM				4.44 µM	18.1 µM	2.76 µM	2.02 µM	4.15 µM	3.05 µM	2.76 µM	> 100 µM
O=C(O)CCC1CCc2cccc(OCC(=O)O)c2C1=O (stereo not drawn)	> 100 µM	> 100 µM		> 100 µM		> 100 µM	> 100 µM		> 100 µM										
O=C(/C=C/c1cccc(S(=O)(=O)Nc2ccccc2)c1)NO		9.27 µM and > 47.1 µM	13.2 µM and > 16.9 µM	58.2 µM and > 100 µM	15.6 µM and 8.91 µM	6.64 µM and > 29.4 µM		5.91 µM and 29.5 µM				0.227 µM and 0.0308 µM	0.428 µM and 0.146 µM		0.448 µM and 0.134 µM	1.22 µM and 0.324 µM	0.457 µM and 0.486 µM	0.384 µM and 0.157 µM	> 100 µM and 10.4 µM
CCC(C)(C)[C@H](NC(=O)[C@H]1CCCCN1C)C(=O)N(C)[C@H](C[C@@H](OC(C)=O)c1nc(C(=O)N[C@@H](Cc2ccccc2)C[C@H](C)C(=O)O)cs1)C(C)C		> 16.7 µM	> 16.7 µM	> 16.7 µM	> 16.7 µM	> 16.7 µM		> 16.7 µM				< 0.00167 µM	< 0.00167 µM	< 0.00167 µM	0.00873 µM	0.00217 µM	< 0.00167 µM	< 0.00167 µM	> 16.7 µM
COc1ccc(/C=C/C(=O)c2ccc(Nc3nc(Nc4ccc(F)cc4)nc(Nc4ccc(Cl)cc4)n3)cc2)cc1		> 100 µM	> 100 µM	> 100 µM	> 100 µM	> 100 µM		> 100 µM				> 100 µM	> 100 µM	37.4 µM	56.9 µM	> 100 µM	> 100 µM	0.292 µM	31.7 µM
CC(=O)OCC1OC([Se-])C(OC(C)=O)C(OC(C)=O)C1OC(C)=O.N#CCC[PH+](CCC#N)CCC#N.[Au+] (stereo not drawn)	> 63.6 µM	> 89 µM	41.9 µM	27.3 µM	> 100 µM	> 94.6 µM		42.1 µM	> 27.9 µM	3.11 µM	7.78 µM	4.75 µM	9.81 µM	3.46 µM	8.41 µM	10.1 µM	37.1 µM		
O=C(Cc1ccccc1)N/N=C(/c1nc2ccc([N+](=O)[O-])cc2[nH]c1=O)C(O)c1ccccc1Cl (stereo not drawn)	> 100 µM	> 100 µM	> 100 µM	> 100 µM	> 100 µM	> 100 µM		> 100 µM	> 100 µM										
C=C1C(=O)c2cc3c(cc2C(c2cc(OC)c(OC)c(OC)c2)[C@@H]1C(=O)O)OCO3 (stereo partly drawn)	> 100 µM	> 100 µM		> 100 µM		> 100 µM	> 100 µM	> 100 µM	> 100 µM										
C=C1C(=O)OC2CC1C(OC(C)=O)C/C(C)=C/CC/C(C)=C\CCC2(C)O (stereo not drawn)		12.6 µM and 8.91 µM	46.3 µM and 30 µM		22.9 µM and 20.3 µM	61.7 µM and 46.6 µM		18.3 µM and 12.3 µM						0.469 µM and 2.36 µM					16.2 µM and 26.3 µM
CCc1cccc(CC)c1NC(=O)CC1SC(N)=NC1=O (stereo not drawn)		> 100 µM	> 100 µM	> 100 µM	> 100 µM	> 100 µM	> 100 µM	> 100 µM	> 100 µM										
Cn1c2cc([N+](=O)[O-])ccc2c(=O)c2c(O)cc3c(c21)C=CC(C)(C)O3	> 100 µM	> 100 µM	80.4 µM	> 100 µM	> 100 µM	87.8 µM		67.6 µM											
O=C(Cc1ccc(Nc2ccnc(C(F)(F)F)c2)cc1)N/N=C/c1ccccc1O		17 µM	> 83.1 µM	8.31 µM	> 73.8 µM	> 68.5 µM		> 26 µM				3.02 µM	7.62 µM	0.716 µM	1.52 µM	2.17 µM	3.13 µM	2.94 µM	23.7 µM
C=C(COC(C)=O)CC(/C=C(\C)CC/C=C(\C)CO)OC(C)=O (stereo not drawn)	> 100 µM	> 100 µM	> 100 µM	> 100 µM	> 100 µM	> 100 µM		> 100 µM	> 100 µM										
NS(=O)(=O)c1ccc(N=C2C(=O)Nc3ccccc32)cc1		> 100 µM	> 100 µM	> 100 µM	> 100 µM	> 100 µM		> 100 µM											> 100 µM
Cc1cc(=O)oc2cc(OC(=O)Nc3ccccc3)ccc12		> 100 µM	> 100 µM	74.2 µM	> 100 µM	> 100 µM		> 100 µM											> 100 µM
O=C1/C(=C\c2ccccc2)CN(C(=O)c2ccccc2)C/C1=C\c1ccccc1		3.04 µM	6.83 µM	6.49 µM	14.8 µM	9.44 µM		3.92 µM				1.47 µM	2.24 µM	1.43 µM	1.7 µM	3.4 µM	3.1 µM	0.39 µM	1.69 µM
